Measured values as given in patent US4372947A, “Antibiotic saframycin S and process for producing the same” (Arai; Tadashi, priority 1980, dated 1983).
In brackets after ≈: the same amount, converted by molar mass. Entries after “also recorded” stand apart in the source; their conditions may differ. Where two headings read alike, the source gives them in different places.

How the values were obtained:
[1] = test system: bacillus cereus; assay: Antimicrobial spectrum (MIC); assay type: cell-based; settings: 1% glucose nutrient agar, 37° C., 24 or 48 hours
[2] = test system: Mycobacterium phlei; assay: Antimicrobial spectrum (MIC); assay type: cell-based; settings: 3% glycerol nutrient agar (acid-fast bacteria), 37° C., 24 or 48 hours
[3] = test system: Bacillus subtilis PCI219; assay: Antimicrobial spectrum (MIC); assay type: cell-based; settings: 1% glucose nutrient agar, 37° C., 24 or 48 hours
[4] = test system: RNA synthesis (Escherichia coli RNA polymerase, calf thymus DNA); assay: RNA synthesis in in vitro reaction mixture; assay type: biochemical
[5] = test system: Shigella dysenteriae Shiga; assay: microbe, parasite or virus in culture; assay type: cell-based
[6] = test system: Staphylococcus albus; assay: Antimicrobial spectrum (MIC); assay type: cell-based; settings: 1% glucose nutrient agar, 37° C., 24 or 48 hours
[7] = test system: DNA of transplantable cancer cells; assay: Mechanism of action: reaction with DNA of transplantable cancer cells
[8] = test system: Mycobacterium sp. 607; assay: Antimicrobial spectrum (MIC); assay type: cell-based; settings: 3% glycerol nutrient agar (acid-fast bacteria), 37° C., 24 or 48 hours
[9] = test system: tumor; settings: Japanese Patent Lay Open No. 44098/1979; cited from earlier work
[10] = test system: leukemia L1210; assay: Antitumor activity, leukemia L1210; assay type: in vivo; settings: mouse tumor
[11] = test system: Streptococcus pyogenes 090R; assay: Antimicrobial spectrum (MIC); assay type: cell-based; settings: blood agar, 37° C., 24 or 48 hours
[12] = test system: S-180 solid cancer; assay: Antitumor activity, S-180 solid cancer; assay type: in vivo; settings: mouse tumor
[13] = test system: Klebsiella pneumoniae; assay: Antimicrobial spectrum (MIC); assay type: cell-based; settings: 1% glucose nutrient agar, 37° C., 24 or 48 hours
[14] = test system: Staphylococcus aureus Smith; assay: Antimicrobial spectrum (MIC); assay type: cell-based; settings: 1% glucose nutrient agar, 37° C., 24 or 48 hours
[15] = test system: Mycobacterium avium; assay: Antimicrobial spectrum (MIC); assay type: cell-based; settings: 3% glycerol nutrient agar (acid-fast bacteria), 37° C., 24 or 48 hours
[16] = test system: Brucella abortus; assay: microbe, parasite or virus in culture; assay type: cell-based
[17] = test system: Streptococcus pyogenes Cook; assay: Antimicrobial spectrum (MIC); assay type: cell-based; settings: blood agar, 37° C., 24 or 48 hours
[18] = test system: Streptococcus faecalis; assay: Antimicrobial spectrum (MIC); assay type: cell-based; settings: 1% glucose nutrient agar, 37° C., 24 or 48 hours
[19] = Biological activity compared between saframycins
[20] = test system: Ehrlich's ascites tumor; assay: Antitumor activity, Ehrlich's ascites tumor; assay type: in vivo; settings: mouse tumor
[21] = test system: gastric cancer of man; assay: Growth inhibition of gastric cancer of man heterotransplanted to the nude mouse; assay type: in vivo
[22] = test system: synthesis of ribosomal RNA and messenger RNA; assay: Mechanism of action: synthesis of ribosomal RNA and messenger RNA; settings: transplantable cancer cells
[23] = test system: Pseudomonas aeruginosa; assay: Antimicrobial spectrum (MIC); assay type: cell-based; settings: 1% glucose nutrient agar, 37° C., 24 or 48 hours
[24] = test system: leukemia P388; assay: Antitumor activity, leukemia P388; assay type: in vivo; settings: mouse tumor
[25] = test system: Nocardia asteroides; assay: Antimicrobial spectrum (MIC); assay type: cell-based; settings: 37° C., 24 or 48 hours
[26] = test system: Staphylococcus citreus; assay: Antimicrobial spectrum (MIC); assay type: cell-based; settings: 1% glucose nutrient agar, 37° C., 24 or 48 hours
[27] = test system: Corynebacterium dephtheriae; assay: Antimicrobial spectrum (MIC); assay type: cell-based
[28] = test system: various microorganisms; assay: Growth inhibition of various microorganisms; assay type: cell-based; settings: at low concentrations
[29] = test system: Corynebacterium xerosis; assay: Antimicrobial spectrum (MIC); assay type: cell-based; settings: 1% glucose nutrient agar, 37° C., 24 or 48 hours
[30] = test system: melanoma B16; assay: Antitumor activity, melanoma B16; assay type: in vivo; settings: mouse tumor
[31] = test system: Salina lutea; assay: Antimicrobial spectrum (MIC); assay type: cell-based
[32] = test system: Salmonella typhimurium; assay: Antimicrobial spectrum (MIC); assay type: cell-based; settings: 1% glucose nutrient agar, 37° C., 24 or 48 hours
[33] = test system: transplantable tumors; assay: Activity against transplantable tumors; settings: in vivo
[34] = test system: Candida albicans 7N; assay: Antimicrobial spectrum (MIC); settings: Sabouraud dextrose agar, 27° C., 48 hours
[35] = test system: gram-positive bacteria and some acidfast bacteria or gram-negative bacteria; assay: Antibacterial activity, summary of spectrum; assay type: cell-based
[36] = test system: mouse lymphoid leukemia P388; assay: Effects on mouse lymphoid leukemia P388 in BDF1 mice; assay type: in vivo; settings: for survival period of treated group over survival period of control group: i.p., 1×10^6 cells i.p., BDF1 mice; for increase of survival period: treatment 1-10 diseased days, 1×10^6 cells
Source text: The effects of saframycin S on mouse lymphoid leukemia P388 were studied with BDF1 mice.

[37] = test system: Saccharomyces cerevisiae; assay: Antimicrobial spectrum (MIC); assay type: cell-based; settings: Sabouraud dextrose agar, 27° C., 48 hours
Source text: (§1) Medium and culture condition:

[38] = test system: Trichophyton mentagrophytes; assay: Antimicrobial spectrum (MIC); assay type: cell-based; settings: Sabouraud dextrose agar, 27° C., 48 hours
Source text: as §1

[39] = test system: Pencillium glaucum; assay: Antimicrobial spectrum (MIC); assay type: cell-based; settings: Sabouraud dextrose agar, 27° C., 48 hours
Source text: as §1

[40] = test system: Rhodotorula glutinis; assay: Antimicrobial spectrum (MIC); assay type: cell-based; settings: Sabouraud dextrose agar, 27° C., 48 hours
Source text: as §1

[41] = test system: Aspergillus oryzae; assay: Antimicrobial spectrum (MIC); assay type: cell-based; settings: Sabouraud dextrose agar, 27° C., 48 hours
Source text: as §1

[42] = test system: Mucor mucedo; assay: Antimicrobial spectrum (MIC); assay type: cell-based; settings: Sabouraud dextrose agar, 27° C., 48 hours
Source text: as §1

[43] = test system: male DDY strain mice; assay: Acute toxicity LD50 in male DDY strain mice; assay type: in vivo, mouse; settings: male DDY mice 18-20 g
[44] = test system: Aspergillus niger; assay: Antimicrobial spectrum (MIC); settings: Sabouraud dextrose agar, 27° C., 48 hours
[45] = test system: Serratia marcescens; assay: Antimicrobial spectrum (MIC); assay type: cell-based; settings: 1% glucose nutrient agar, 37° C., 24 or 48 hours
[46] = test system: Escherichia coli; assay: Antimicrobial spectrum (MIC); assay type: cell-based; settings: 1% glucose nutrient agar, 37° C., 24 or 48 hours
[47] = test system: Staphylococcus salivarius; assay: Antimicrobial spectrum (MIC); assay type: cell-based; settings: 1% glucose nutrient agar, 37° C., 24 or 48 hours
[48] = test system: Staphylococcus aureus 209P; assay: Antimicrobial spectrum (MIC); assay type: cell-based; settings: 1% glucose nutrient agar, 37° C., 24 or 48 hours
[49] = 1% glucose nutrient agar, 37° C., 24 or 48 hours

## COC1=C(C)C(=O)C2=C(C1=O)C1C3CC4=C(C(=O)C(OC)=C(C)C4=O)C(CNC(=O)C(C)=O)N3C(C#N)C(C2)N1C (centres unmarked) [Saframycin A, reference compound]
[1]; Bacillus cereus, read-out: MIC
  MIC: 0.4 µg/mL (≈ 0.711 µM)
[2]; Mycolicibacterium phlei, read-out: MIC
  MIC: 1.56 µg/mL (≈ 2.77 µM)
[3]; Bacillus subtilis, PCI219, read-out: MIC
  MIC: 0.025 µg/mL (≈ 0.0444 µM)
[4]; Escherichia coli RNA polymerase, calf thymus DNA, RNA precursor, no reducing agent
  inhibition of RNA synthesis in vitro: did not inhibit RNA synthesis
[4]; with dithiothreitol (DTT) and other reducing agent
  inhibition of RNA synthesis in vitro: RNA synthesis inhibition equivalent to in vivo effect was observed
[5]; Shigella dysenteriae
  MIC: 1.56 µg/mL (≈ 2.77 µM)
[6]; Staphylococcus, read-out: MIC
  MIC: 0.006 µg/mL (≈ 0.0107 µM)
[7]
  reaction with DNA, inhibition of template activity: specifically reacted with DNA of transplantable cancer cells to inhibit their template activity
[8]; Mycobacterium, SP.607, read-out: MIC
  MIC: 1.56 µg/mL (≈ 2.77 µM)
[9]
  antitumor effect: strong antitumor effect
[10]
  effect on leukemia L1210: effective
[11]; Streptococcus pyogenes, 090R, read-out: MIC
  MIC: 3 µg/mL (≈ 5.33 µM)
[12]
  effect on S-180 solid cancer: effective
[13]; Klebsiella pneumoniae, read-out: MIC
  MIC: 1.56 µg/mL (≈ 2.77 µM)
[14]; Staphylococcus aureus, read-out: MIC
  MIC: 0.025 µg/mL (≈ 0.0444 µM)
[15]; Mycobacterium avium, read-out: MIC
  MIC: 100 µg/mL (≈ 178 µM)
[16]; Brucella abortus
  MIC: 1.56 µg/mL (≈ 2.77 µM)
[17]; Streptococcus pyogenes, read-out: MIC
  MIC: 1.56 µg/mL (≈ 2.77 µM)
[18]; Enterococcus faecalis, read-out: MIC
  MIC: 1.56 µg/mL (≈ 2.77 µM)
[19]; among saframycins A-E
  biological activity among saframycins A-E: highest biological activity
[20]
  effect on Ehrlich's ascites tumor: effective
[21]
  inhibition of growth of gastric cancer of man: effective in inhibiting the growth of gastric cancer of man
[22]
  synthesis of ribosomal RNA and messenger RNA: prevented synthesis of ribosomal RNA and messenger RNA
[23]; Pseudomonas aeruginosa, read-out: MIC
  MIC: 100 µg/mL (≈ 178 µM)
[24]
  effect on leukemia P388: effective
[25]; Nocardia asteroides, read-out: MIC
  MIC: 50 µg/mL (≈ 88.9 µM)
[26]; Staphylococcus, read-out: MIC
  MIC: 0.006 µg/mL (≈ 0.0107 µM)
[27]; Corynebacterium
  MIC: 0.001 µg/mL (≈ 0.00178 µM)
[28]
  inhibition of growth of various microorganisms: effective in inhibiting the growth of various microorganisms at low concentrations
[29]; Corynebacterium xerosis, read-out: MIC
  MIC: 0.012 µg/mL (≈ 0.0213 µM)
[30]
  effect on melanoma B16: effective
[31]
  MIC: 0.006 µg/mL (≈ 0.0107 µM)

## COC1=C(C)C(=O)C2=C(C1=O)[C@@H]1[C@@H]3CC4=C(C(=O)C(OC)=C(C)C4=O)[C@H](CNC(=O)C(C)=O)N3[C@@H](O)[C@H](C2)N1C [Saframycin S]
[1]
  MIC: 0.4 µg/mL (≈ 0.723 µM)
[2]
  MIC: 0.8 µg/mL (≈ 1.45 µM)
[3]
  MIC: 0.025 µg/mL (≈ 0.0452 µM)
[32]
  MIC: 100 µg/mL (≈ 181 µM)
[5]; [49]
  MIC: 1.56 µg/mL (≈ 2.82 µM)
[6]
  MIC: 0.001 µg/mL (≈ 0.00181 µM)
[33]
  activity against transplantable tumors: activity against transplantable tumors
[8]
  MIC: 1.56 µg/mL (≈ 2.82 µM)
[34]
  MIC: > 100 µg/mL
[35]
  antibacterial activity: antibacterial activities mainly against gram-positive bacteria; also recorded: antibacterial activity mainly against gram-positive bacteria and some acidfast bacteria or gram-negative bacteria such as Mycobacterium, Shigella dysenteriae Shiga and Brucella
[11]
  MIC: 0.05 µg/mL (≈ 0.0903 µM)
[36]; 0.5 mg/kg daily for 10 days
  survival period of treated group over survival period of control group: 146.2%
[36]; 0.5 mg/kg/day
  increase of survival period: 46.2%
[36]; 0.75 mg/kg daily for 10 days
  survival period of treated group over survival period of control group: 157.7%
[36]; 0.75 mg/kg/day
  increase of survival period: 57.7%
[36]; 1.0 mg/kg daily for 10 days
  survival period of treated group over survival period of control group: 161.5%
[36]; 1.0 mg/kg/day
  increase of survival period: 61.5%
[36]; 1.5 mg/kg daily for 10 days
  survival period of treated group over survival period of control group: 182.7%
[36]; 1.5 mg/kg/day
  increase of survival period: 82.7%
[37]
  MIC: 50 µg/mL (≈ 90.3 µM)
[38]
  MIC: 50 µg/mL (≈ 90.3 µM)
[39]
  MIC: 100 µg/mL (≈ 181 µM)
[40]
  MIC: 100 µg/mL (≈ 181 µM)
[41]
  MIC: 100 µg/mL (≈ 181 µM)
[42]
  MIC: 100 µg/mL (≈ 181 µM)
[13]
  MIC: 1.56 µg/mL (≈ 2.82 µM)
[14]
  MIC: 0.001 µg/mL (≈ 0.00181 µM)
[15]
  MIC: 50.0 µg/mL (≈ 90.3 µM)
[16]; blood agar, 37° C., 24 or 48 hours
  MIC: 0.8 µg/mL (≈ 1.45 µM)
[17]
  MIC: 0.05 µg/mL (≈ 0.0903 µM)
[18]
  MIC: 1.56 µg/mL (≈ 2.82 µM)
[43]; intraperitoneal injection
  LD50: 2.5 mg/kg
[43]; intravenous injection
  LD50: 0.83 mg/kg
[19]; compared with saframycin A
  biological activities relative to saframycin A: still more powerful biological activities in every point than saframycin A; also recorded: almost equal to that of saframycin A
[44]
  MIC: > 100 µg/mL
[45]
  MIC: 50.0 µg/mL (≈ 90.3 µM)
[23]
  MIC: 100 µg/mL (≈ 181 µM)
[25]
  MIC: 6.25 µg/mL (≈ 11.3 µM)
[46]
  MIC: 25.0 µg/mL (≈ 45.2 µM)
[26]
  MIC: 0.001 µg/mL (≈ 0.00181 µM)
[27]; [49]
  MIC: 0.001 µg/mL (≈ 0.00181 µM)
[47]
  MIC: 25.0 µg/mL (≈ 45.2 µM)
[48]
  MIC: 0.01 µg/mL (≈ 0.0181 µM)
[29]
  MIC: 0.001 µg/mL (≈ 0.00181 µM)
[31]; [49]
  MIC: 0.006 µg/mL (≈ 0.0108 µM)
